Experimental data published in ChEMBL document CHEMBL5608189, “Design and synthesis of unique indole-benzosulfonamide oleanolic acid derivatives as potent antibacterial agents against MRSA” (Eur J Med Chem, 2024).
≈ marks a conversion by molar mass, not a printed value. Calls of active or inactive are those of the source. No cut-off for these calls is given here.

Assays:
Staphylococcus aureus [1] = assay: Antibiofilm activity in methicillin-resistant Staphylococcus aureus assessed as inhibition of biofilm formation at 16 times MIC measured after 24 hrs by crystal violet staining based analysis relative to control; format: functional
Staphylococcus aureus [2] = assay: Bactericidal activity against methicillin-resistant Staphylococcus aureus measured after 24 hrs; format: functional
Cell membrane [3] = assay: Induction of cell membrane in methicillin-resistant Staphylococcus aureus assessed as increase in fluorescence intensity by measuring number of PI-permeable cells at 8 times MIC measured after 2 hrs by PI staining based flow cytometry analysis (reference value: 5.71); format: cell membranes
Cell membrane [4] = assay: Disruption of cell membrane integrity in methicillin-resistant Staphylococcus aureus assessed as protein leakage at 8 times MIC incubated for 8 hrs by BCA assay; format: cell membranes
[5] = Toxicity in female C57BL/6 mouse assessed as changes in skin tissue at 10 to 30 mg/kg administered daily for 3 days and measured on day 4 by H and E staining based microscopic analysis; format: organism-based; details: in vivo, 96 h, dose 10-30 mg/kg, time 4 day
Staphylococcus aureus [6] = assay: Bactericidal activity against Staphylococcus aureus ATCC 29213 measured after 24 hrs; format: functional
Staphylococcus aureus [7] = assay: Antibiofilm activity in methicillin-resistant Staphylococcus aureus assessed as eradication of formed biofilm by measuring reduction in biofilm mass at 1 times MIC measured after 24 hrs by crystal violet staining based analysis relative to control; format: functional; set-up: scale not given: the % may be the effect or the level left
Cell membrane [8] = assay: Induction of membrane depolarization in methicillin-resistant Staphylococcus aureus assessed as increase in fluorescence intensity at 1 to 8 times MIC measured after 30 mins by DiSC3(5) dye based spectrofluorometer; format: cell membranes
[9] = Hemolytic activity in rabbit red blood cells assessed as hemolytic rate at 128 times MIC measured after 1 hr by absorbance based method relative to control; format: toxicity, cell-based, Oryctolagus cuniculus, Erythrocyte; details: rabbit red blood cells (erythrocytes), read-out: Activity
Staphylococcus aureus [10] = assay: Resistant development in methicillin-resistant Staphylococcus aureus assessed as increase in MIC at sub-MIC measured after 20 passages; format: functional, organism-based

CC1(C)CC[C@]2(C(=O)NS(=O)(=O)c3ccc(Cl)cc3)CC[C@]3(C)C(=CC[C@@H]4[C@@]5(C)Cc6c([nH]c7c(C(=O)O)cccc67)C(C)(C)[C@@H]5CC[C@]43C)[C@@H]2C1
inhibition (INH) (Staphylococcus aureus [1]): 81% | MBC (Staphylococcus aureus [2]): 4 µM (≈ 2.98 µg/mL) | Activity (Cell membrane [3]): 46.5 | Activity (Cell membrane [4]): 168 µg/mL | Activity [5]: Non-Toxic | MBC (Staphylococcus aureus [6]): 2 µM (≈ 1.49 µg/mL) | Activity (Staphylococcus aureus [7]): 52% | Activity (Cell membrane [8]): Dose-Dependent Effect | hemolysis at 1 h, 128 times MIC [9]: < 5% | Activity (Staphylococcus aureus [10]): inactive
